Drawing on US20250115582A1, “MOLECULAR GLUE DEGRADERS AND METHODS OF USING THE SAME” (Monte Rosa Therapeutics, Inc., priority 2022, published 2025), this text covers DC50, IC50 and GI50 for 13 molecules.

Bounds are passed on as bounds.

For one test, the target named is T1, CK1α (Homo sapiens, UniProt P48729+Q96SW2).
T1 construct: HEK293 clonal line with CRISPR KI HiBiT tag on CSNK1A1; host or cells: HEK293 clonal line, CRISPR HiBiT knock-in at CSNK1A1, stably expressing LgBiT
In words: CK1α NanoBiT assay (HiBiT-tagged CSNK1A1 in HEK293 clonal line). Format: cell-based. The note with it: HEK293 HiBiT-CSNK1A1/LgBiT cells, 24 h incubation, luminescence. The procedure: HEK293 clonal line with CRISPR KI HiBiT tag on CSNK1A1 and stably expressing LgBiT protein was obtained from Promega (Madison, WI). Cells were plated at 5000 cells per well using Multiflo (BioTek) in 384-well white solid bottom plates (Corning, 3570BC) in […] volume in DMEM media (DMEM, high glucose, HEPES, no phenol red (ThermoFisher Scientific, 21063029)) containing 10% FBS (Corning, 35-075-CV), 1% Penicillin/Streptomycin ((ThermoFisher Scientific, 15140-122), and 0.2% Endurazine (Nano-Glo Endurazine Live Cell Substrate (Promega, N2571)). Cells were incubated for 16 hours at 37C, 5% CO2. Depending on experiment 25 or 75 nL of a compound at 10 mM were added into the plate using an Echo®650 liquid handler (Labcyte) to achieve final concentration of […] in wells. Cells were incubated at 37° C., 5% CO2 for 24 hours followed by signal was read on Pherastar FSX using “LUM plus” optic module.
Data analysis was performed using Scinamic (Scinamic, Cambridge, MA).
Luminescence response (R) was calculated by the formula: response=100*(S−N)/(P−N), where S is the signal of the well, N and P the mean negative and positive control values, respectively, of the same plate. The luminescence response was then fitted in Scinamic using a 3-parameter agonist logistic fit (hillslope=1, EC50>0, top/bottom unconstrained).
DC50 data are reported in Table 2 for compounds in Table 1. In Table 2 below, According to the code, A represents a DC50 value of ≤0.1 μM, B represents a DC50 value>0.1 μM and ≤1 μM, C represents an DC50 value>1 μM.
For orientation: HiBiT is a short tag that completes a luciferase, so light tracks the accessible tagged protein.

The target in another test is CRBN/DDB1 (Homo sapiens, UniProt Q96SW2). Briefly: HTRF binding assay (thalidomide probe displacement from CRBN/DDB1). The note with it: CRBN/DDB1 2.5 nM, Cy5-Thalidomide 100 nM, 30 min; geometric mean; read-out: HTRF_Thali_Disp_DR—geo_IC50. The source says:
Binding of test compounds to CRBN/DDB1 was monitored in an HTRF assay using 1-[5-({2-[2-(2-{[2-(2,6-dioxopiperidin-3-yl)-1,3-dioxo-2,3-dihydro-1H-isoindol-4-yl]oxy}acetamido)ethoxy]ethyl}carbamoyl)pentyl]-3,3-dimethyl-2-[(1E,3E)-5-[(2E)-1,3,3-trimethyl-5-sulfo-2,3-dihydro-1H-indol-2-ylidene]penta-1,3-dien-1-yl]-3H-indol-1-ium-5-sulfonate as a fluorescent probe. In this assay, compounds displace the fluorescently labeled thalidomide-based probe bound to CRBN and fluorescence is monitored with increasing compound concentration. Assays were conducted in Greiner white 384 well HiBase plates (Cat. No 784075-25) in 10 μL total volume. A one pot detection solution of CRBN/DDB1 (2.5 nM), anti-His Terbium Cryptate Gold (1×, PerkinElmer Cat. #: 61HI2TLB), and Cy5-Thalidomide (100 nM, Tenova Cat.: T52461) was prepared in 20 mM HEPES, 20 mM NaCl, 0.2 mM TCEP, 0.2 mM EDTA, and 0.005% Tween20 was dispensed to each assay plate. Test compounds were stored in dry, ambient temperatures at 10 mM. A 10-point, 1:3 dilution series was prepared from 10 mM stock concentrations in Echo-compatible LDV plates. 10 nL of each compound dilution series was dispensed into assays wells using an Echo 650 (Labcyte inc. USA). 10 nL of 10 mM lenalidomide (Selleckchem Cat no. S1029) was transferred into the active-control wells for the assay and 10 nL of DMSO was transferred into the negative control wells. The assay was then allowed to incubate for 30 min at ambient temperature after transferring the test compounds. Plate measurements were taken on a Pherastar FSX (BMG Labtech, Germany) using the HTRF Red filter (Ex. 337 nm, eml: 620 nm, em2: 665 nm) (Flashes: 50, Integration time: 60-400 μs, Z-height: 10 mm, Ratio-multiplier: 10,000). Analysis, HTRF ratio and IC50 values were derived using KNIME analytics (KNIME Zurich) transformation and fitting within Collaborative Drug Discovery (Collaborative Drug Discovery USA) using a 4-parameter logistic fit. HTRF ratio calculation was performed using the following formula: […]
where em665nm represents the measured emission at 665 nm upon excitation at 337 nm and em620nm the measured emission at 620 nm upon excitation at 337 nm. The 4 parameter logistic fitting model was performed using the following formula: […]
where Y represents the HTRF ratio response (as defined previously), X the compound concentration in μM, Ymin the minimum response plateau, Ymax the maximum response plateau, IC50 the concentration of agonist that gives a response half way between Ymin and Ymax and HillSlope the steepness of the family of curves. No fitting model constraints was applied on Ymin, or Ymax whilst IC50>0 and −0.5>HillSlope>−3
Ki values were derived from the geometric mean of the IC50 values using the Cheng-Prusoff transformation:
where [L] represents the concentration of fluorescent probe in μM, Kd the affinity (binding constant) of the fluorescent probe in units of μM and IC50 the concentration of agonist that gives a response halfway between Ymin and Ymax (as described in 1.2.1)
Analysis and IC50 values were derived using KNIME analytics (KNIME, Zurich) transformation and fitting within Collaborative Drug Discovery (Collaborative Drug Discovery, USA) as described in 1.2.1. Ki values were derived from the geometric mean of the IC50 values using the Cheng-Prusoff transformation as described in 2.2.2. Data was visualized in GraphPad Prism 8.1.2 (GraphPad, USA) and reported as mean and standard deviation. Microsoft Office Excel 2012 (Redmond, WA) was used for calculation of mean and standard deviation.
IC50 data are reported in Table 3 for compounds in Table 1. In Table 3 below, According to the code, A represents a IC50 value of ≤0.1 μM, B represents a IC50 value≥0.1 μM and ≤1 μM, C represents an IC50 value>1 μM.

For a further test, the system named is SKCO1. Briefly: GI50 growth inhibition, CyQUANT, SKCO1. Format: cell-based. The note with it: Homo sapiens, SK-CO-1, SKCO1 cells, 120 to 168 hours. The procedure:
(§1) SKCO1, LS180, and LS174T cell lines were purchased from ATCC. CW2 cell line was purchased from Riken. GP2D cell line was purchased from Sigma/ECACC. All cell lines were cultured in manufacturer's recommended media at 37° C., 5% CO2. Briefly, cells were suspended in 200 μL of media and seeded at 300 to 1,800 cells per well in tissue culture treated 96-well plates with black walls and clear bottom. Plates were incubated overnight and initial (T0) read was performed the following day using CyQUANT Direct Cell Proliferation Assay Kit (Thermo Fisher Scientific) according to manufacturer's protocol. All compounds were solubilized in DMSO and prepared at 3-fold serial dilution, using 9 points starting at 30 μM as highest concentration, administered to cells and incubated for 120 to 168 hours, at which point CyQUANT assay measurement was performed using Acumen Cellista instrument (Ex/Em 480/520 nm). Media-only wells were used as blank, and 0.3% DMSO was used as DMSO-treated cell control. Growth inhibition (percent response) was calculated using the following formula in Excel: “=if ([Compound treated Day N]>[Untreated Day 0, AVG], ([Compound treated Day N]−[Untreated Day 0, AVG])/([Untreated Day N]−[Untreated Day 0, AVG])*100, ([Compound Treated Day N]−[Untreated Day 0, AVG])/([Untreated Day 0, AVG])*100)”. GI50 is the response corresponding to the 50% of untreated control.
(§2) GI50 data are reported in Tables 4a, 4b, 4c, 4d, and 4e for compounds in Table 1. In Tables 4a, 4b, 4c, 4d, and 4e below, According to the code, A represents a GI50 value of ≤0.1 μM, B represents a GI50 value>0.1 μM and ≤1 μM, C represents an GI50 value>1 μM.

The test system of another test is CW2. Briefly: GI50 growth inhibition, CyQUANT, CW2. To be noted: Homo sapiens, CW-2, CW2 cells, 120 to 168 hours. Format: cell-based. As to the method: as §1, §2
The test system of the next test is GP2D. In words: GI50 growth inhibition, CyQUANT, GP2D. To be noted: GP2D cells, 120 to 168 hours. Format: cell-based. As to the method: as §1, §2
A further test has as its system LS180. Briefly: GI50 growth inhibition, CyQUANT, LS180. It is filed as cell-based. The note with it: Homo sapiens, LS180 cells, 120 to 168 hours. As to the method:
as §1, §2

The subject of a further test is LS174T. Briefly: GI50 growth inhibition, CyQUANT, LS174T. It is filed as cell-based. To be noted: Homo sapiens, LS174T cells, 120 to 168 hours. The procedure:
as §1, §2

CRBN/DDB1, sequence (Q96SW2 whole entry): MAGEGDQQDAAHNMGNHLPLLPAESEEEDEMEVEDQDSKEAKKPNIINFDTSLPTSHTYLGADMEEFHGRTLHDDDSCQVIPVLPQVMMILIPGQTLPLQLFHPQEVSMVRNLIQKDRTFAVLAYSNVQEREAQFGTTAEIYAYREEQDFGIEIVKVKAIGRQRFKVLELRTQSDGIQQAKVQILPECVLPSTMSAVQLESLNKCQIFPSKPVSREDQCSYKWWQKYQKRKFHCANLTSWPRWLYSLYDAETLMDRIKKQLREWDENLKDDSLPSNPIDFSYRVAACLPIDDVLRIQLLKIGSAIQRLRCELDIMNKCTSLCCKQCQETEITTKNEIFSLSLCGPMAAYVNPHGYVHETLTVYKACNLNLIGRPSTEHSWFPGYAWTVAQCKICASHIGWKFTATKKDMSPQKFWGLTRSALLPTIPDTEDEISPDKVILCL
CRBN/DDB1, sequence (Q16531 whole entry partner): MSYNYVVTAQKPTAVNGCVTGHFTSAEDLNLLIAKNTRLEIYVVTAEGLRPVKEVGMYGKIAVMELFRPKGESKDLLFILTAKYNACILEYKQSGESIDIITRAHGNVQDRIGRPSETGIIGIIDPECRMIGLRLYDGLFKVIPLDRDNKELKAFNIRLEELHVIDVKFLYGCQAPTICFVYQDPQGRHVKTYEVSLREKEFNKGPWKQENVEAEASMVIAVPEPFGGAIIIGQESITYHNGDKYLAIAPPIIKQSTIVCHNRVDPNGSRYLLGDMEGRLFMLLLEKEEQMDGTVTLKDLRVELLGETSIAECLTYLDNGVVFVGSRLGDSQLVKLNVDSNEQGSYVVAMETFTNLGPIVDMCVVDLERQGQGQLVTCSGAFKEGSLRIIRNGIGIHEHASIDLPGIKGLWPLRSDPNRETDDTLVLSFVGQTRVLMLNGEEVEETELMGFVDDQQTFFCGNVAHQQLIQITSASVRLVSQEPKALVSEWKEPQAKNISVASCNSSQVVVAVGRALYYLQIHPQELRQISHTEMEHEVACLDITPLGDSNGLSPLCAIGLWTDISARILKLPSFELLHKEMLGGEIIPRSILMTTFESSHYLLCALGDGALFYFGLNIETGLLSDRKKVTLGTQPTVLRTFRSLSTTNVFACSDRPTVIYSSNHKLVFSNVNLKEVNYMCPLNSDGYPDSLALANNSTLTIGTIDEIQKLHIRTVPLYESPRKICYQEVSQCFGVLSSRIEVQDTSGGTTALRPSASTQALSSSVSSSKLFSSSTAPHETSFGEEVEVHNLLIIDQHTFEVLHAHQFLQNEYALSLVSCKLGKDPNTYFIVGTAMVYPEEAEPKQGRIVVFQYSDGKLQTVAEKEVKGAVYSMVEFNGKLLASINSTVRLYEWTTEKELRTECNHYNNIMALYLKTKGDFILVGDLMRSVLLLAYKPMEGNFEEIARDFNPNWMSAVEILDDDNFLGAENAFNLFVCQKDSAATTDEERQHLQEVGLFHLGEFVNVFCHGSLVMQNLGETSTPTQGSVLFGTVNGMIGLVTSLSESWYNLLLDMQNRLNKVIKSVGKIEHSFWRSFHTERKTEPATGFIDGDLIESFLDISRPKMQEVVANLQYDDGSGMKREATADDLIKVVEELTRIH
T1 sequence (P48729 whole entry): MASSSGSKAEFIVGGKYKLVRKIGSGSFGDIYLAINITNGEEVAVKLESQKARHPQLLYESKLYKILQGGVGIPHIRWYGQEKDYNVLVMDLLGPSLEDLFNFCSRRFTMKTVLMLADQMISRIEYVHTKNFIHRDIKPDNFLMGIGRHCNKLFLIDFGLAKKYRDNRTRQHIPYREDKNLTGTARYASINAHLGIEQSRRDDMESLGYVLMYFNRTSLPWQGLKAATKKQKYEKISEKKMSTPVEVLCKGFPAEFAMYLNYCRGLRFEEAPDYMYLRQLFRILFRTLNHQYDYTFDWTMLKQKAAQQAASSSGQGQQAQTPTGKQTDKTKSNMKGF
T1 sequence (Q96SW2 whole entry): as the sequence (Q96SW2 whole entry) above
T1 sequence (Q16531 2-1140 partner limits assumed): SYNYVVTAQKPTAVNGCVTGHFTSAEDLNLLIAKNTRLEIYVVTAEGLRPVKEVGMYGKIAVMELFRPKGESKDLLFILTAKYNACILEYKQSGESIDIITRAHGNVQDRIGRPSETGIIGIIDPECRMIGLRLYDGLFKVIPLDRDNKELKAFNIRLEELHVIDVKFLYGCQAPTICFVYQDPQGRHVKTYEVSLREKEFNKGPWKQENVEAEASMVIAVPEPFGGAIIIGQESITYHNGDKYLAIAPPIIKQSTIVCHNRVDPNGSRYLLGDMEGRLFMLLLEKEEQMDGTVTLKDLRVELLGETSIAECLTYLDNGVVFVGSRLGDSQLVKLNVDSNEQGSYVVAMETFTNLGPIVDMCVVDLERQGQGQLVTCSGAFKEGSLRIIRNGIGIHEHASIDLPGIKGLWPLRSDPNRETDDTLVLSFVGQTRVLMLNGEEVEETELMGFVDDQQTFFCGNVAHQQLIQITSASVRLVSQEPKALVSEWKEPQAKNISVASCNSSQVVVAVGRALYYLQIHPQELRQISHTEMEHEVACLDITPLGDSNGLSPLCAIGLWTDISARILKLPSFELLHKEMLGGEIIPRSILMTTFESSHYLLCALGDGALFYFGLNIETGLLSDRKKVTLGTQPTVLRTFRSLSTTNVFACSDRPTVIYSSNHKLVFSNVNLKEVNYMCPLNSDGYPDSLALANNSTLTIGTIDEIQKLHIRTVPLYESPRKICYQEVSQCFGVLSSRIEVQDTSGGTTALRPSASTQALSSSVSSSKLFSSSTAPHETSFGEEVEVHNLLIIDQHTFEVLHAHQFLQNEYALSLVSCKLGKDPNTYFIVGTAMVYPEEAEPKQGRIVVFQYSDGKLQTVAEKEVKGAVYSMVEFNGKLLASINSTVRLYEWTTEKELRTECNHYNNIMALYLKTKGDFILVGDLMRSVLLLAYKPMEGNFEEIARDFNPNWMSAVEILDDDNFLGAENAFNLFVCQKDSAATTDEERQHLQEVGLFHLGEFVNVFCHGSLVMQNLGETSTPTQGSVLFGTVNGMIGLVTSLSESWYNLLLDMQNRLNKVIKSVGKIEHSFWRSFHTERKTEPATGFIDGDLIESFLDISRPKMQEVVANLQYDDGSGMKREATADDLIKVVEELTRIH

Take `O=C1CCC(N2Cc3cc(NC(=O)c4cn(-c5ccccc5)cn4)ccc3C2=O)C(=O)N1` (stereo not shown) [Compound 109, N-(2-(2,6-dioxopiperidin-3-yl)-1-oxoisoindolin-5-yl)-1-phenyl-1H-imidazole-4-carboxamide]: on CK1α, the DC50 is < 0.1 µM. Moreover, at CRBN/DDB1, the IC50 fell in the range of 0.1 to 1 µM. For the same molecule, the GI50 (as a rule, the concentration that inhibits growth by half) was < 0.1 µM with SKCO1; < 0.1 µM in the test on CW2; < 0.1 µM in the test with GP2D; 0.1 to 1 µM in the test with LS180; < 0.1 µM with LS174T.

As to `Cc1cccc(C(=O)Nc2ccc3c(c2)CN(C2CCC(=O)NC2=O)C3=O)c1` (stereo not shown) [Compound 139, N-(2-(2,6-dioxopiperidin-3-yl)-1-oxoisoindolin-5-yl)-3-methylbenzamide], the DC50 at CK1α is < 0.1 µM. Also, the IC50 on CRBN/DDB1 fell in the range of 0.1 to 1 µM.

In turn, `CC(C)c1ccccc1C(=O)Nc1ccc2c(c1)CN(C1CCC(=O)NC1=O)C2=O` (stereo not shown) [Compound 140, N-(2-(2,6-dioxopiperidin-3-yl)-1-oxoisoindolin-5-yl)-2-isopropylbenzamide] had a DC50 at CK1α of 0.1 to 1 µM. The IC50 on CRBN/DDB1 was 0.1 to 1 µM.

For `CCc1ccccc1C(=O)Nc1ccc2c(c1)CN(C1CCC(=O)NC1=O)C2=O` (stereo not shown) [Compound 141, N-(2-(2,6-dioxopiperidin-3-yl)-1-oxoisoindolin-5-yl)-2-ethylbenzamide], the DC50 on CK1α lay within 0.1 to 1 µM. Also, the IC50 on CRBN/DDB1 was in the range of 0.1 to 1 µM.

For `O=C1CCC(N2Cc3cc(NC(=O)c4cccc(F)c4)ccc3C2=O)C(=O)N1` (stereo not shown) [Compound 142, N-(2-(2,6-dioxopiperidin-3-yl)-1-oxoisoindolin-5-yl)-3-fluorobenzamide], the DC50 at CK1α was < 0.1 µM. The IC50 on CRBN/DDB1 was in the range of 0.1 to 1 µM.

On to `O=C1CCC(N2Cc3cc(NC(=O)c4ccccc4F)ccc3C2=O)C(=O)N1` (stereo not shown) [Compound 143, N-(2-(2,6-dioxopiperidin-3-yl)-1-oxoisoindolin-5-yl)-2-fluorobenzamide], for which the DC50 at CK1α was 0.1 to 1 µM. Also, the IC50 on CRBN/DDB1 was in the range of 0.1 to 1 µM.

Molecule `Cc1cc(CC(=O)Nc2ccc3c(c2)CN(C2CCC(=O)NC2=O)C3=O)ccc1Cl` (stereo not shown) [Compound 144, 2-(4-chloro-3-methylphenyl)-N-(2-(2,6-dioxopiperidin-3-yl)-1-oxoisoindolin-5-yl)acetamide] yielded a DC50 on CK1α of 0.1 to 1 µM. Besides, the IC50 at CRBN/DDB1 lay in the range of 0.1 to 1 µM.

With `O=C1CCC(N2Cc3cc(NC(=O)c4ccccc4Cl)ccc3C2=O)C(=O)N1` (stereo not shown) [Compound 148], the DC50 at CK1α is < 0.1 µM. Further, at CRBN/DDB1, the IC50 was 0.1 to 1 µM.

For the molecule `Cc1nc(C(=O)Nc2ccc3c(c2)CN(C2CCC(=O)NC2=O)C3=O)cn1-c1ccccc1` (stereo not shown) [Compound 155, N-(2-(2,6-dioxopiperidin-3-yl)-1-oxoisoindolin-5-yl)-2-methyl-1-phenyl-1H-imidazole-4-carboxamide], the DC50 on CK1α is < 0.1 µM. In addition, the IC50 on CRBN/DDB1 is ≤ 0.1 µM.

For `O=C1CCC(N2Cc3cc(NC(=O)c4cn(-c5ccccc5)c(C(F)(F)F)n4)ccc3C2=O)C(=O)N1` (stereo not shown) [Compound 156, N-(2-(2,6-dioxopiperidin-3-yl)-1-oxoisoindolin-5-yl)-1-phenyl-2-(trifluoromethyl)-1H-imidazole-4-carboxamide], the DC50 on CK1α is < 0.1 µM. For the same molecule, at CRBN/DDB1, the IC50 was 0.1 to 1 µM.

`COCc1nc(C(=O)Nc2ccc3c(c2)CN(C2CCC(=O)NC2=O)C3=O)cn1-c1ccccc1` (stereo not shown) [Compound 157, N-(2-(2,6-dioxopiperidin-3-yl)-1-oxoisoindolin-5-yl)-2-(methoxymethyl)-1-phenyl-1H-imidazole-4-carboxamide]: the DC50 at CK1α was < 0.1 µM. Also, the IC50 at CRBN/DDB1 was ≤ 0.1 µM.

Regarding `Cc1c(C(=O)Nc2ccc3c(c2)CN(C2CCC(=O)NC2=O)C3=O)ncn1-c1ccccc1` (stereo not shown) [Compound 158, N-(2-(2,6-dioxopiperidin-3-yl)-1-oxoisoindolin-5-yl)-5-methyl-1-phenyl-1H-imidazole-4-carboxamide], the DC50 on CK1α was < 0.1 µM. Moreover, the IC50 at CRBN/DDB1 was in the range of 0.1 to 1 µM.

`COCc1c(C(=O)Nc2ccc3c(c2)CN(C2CCC(=O)NC2=O)C3=O)ncn1-c1ccccc1` (stereo not shown) [Compound 159, N-(2-(2,6-dioxopiperidin-3-yl)-1-oxoisoindolin-5-yl)-5-(methoxymethyl)-1-phenyl-1H-imidazole-4-carboxamide] displayed a DC50 on CK1α of 0.1 to 1 µM. Also, at CRBN/DDB1, the IC50 is 0.1 to 1 µM.
